Data as given in ChEMBL document CHEMBL3853353, “Identification and optimization of a new series of anti-tubercular quinazolinones” (Bioorg Med Chem Lett, 2016).
Converted amounts (≈) assume the structure as drawn.

Experiments:
[1] = system: Mycobacterium tuberculosis; assay: Ratio of MIC80 for Mycobacterium tuberculosis H37Rv in presence of 25% human serum to MIC80 for Mycobacterium tuberculosis H37Rv; assay type: functional
Cytochrome P450 3A4 [2] = molecular target: T1, Cytochrome P450 3A4 (Homo sapiens, UniProt P08684); assay: Inhibition of CYP3A4 in human liver microsomes assessed as 6-beta-hydroxytestosterone metabolite formation using testosterone as substrate incubated for 30 mins by HPLC-MS method
T1 sequence (P08684 whole entry): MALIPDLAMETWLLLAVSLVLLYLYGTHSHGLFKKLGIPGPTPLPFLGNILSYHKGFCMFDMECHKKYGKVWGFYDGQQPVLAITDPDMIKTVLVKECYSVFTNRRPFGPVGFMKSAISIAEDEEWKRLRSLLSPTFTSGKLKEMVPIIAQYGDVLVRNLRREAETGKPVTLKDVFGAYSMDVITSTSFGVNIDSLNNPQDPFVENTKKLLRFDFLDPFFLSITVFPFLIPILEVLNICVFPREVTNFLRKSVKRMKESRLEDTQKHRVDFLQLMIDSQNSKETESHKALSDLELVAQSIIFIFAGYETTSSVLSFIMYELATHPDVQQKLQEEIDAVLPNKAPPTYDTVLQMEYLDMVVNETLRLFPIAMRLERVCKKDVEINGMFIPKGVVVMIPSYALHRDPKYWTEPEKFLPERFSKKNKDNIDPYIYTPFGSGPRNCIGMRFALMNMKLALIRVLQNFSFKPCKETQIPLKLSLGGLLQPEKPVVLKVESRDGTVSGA

Cytochrome P450 3A4 [3] = molecular target: T1, Cytochrome P450 3A4; assay: Inhibition of CYP3A4 in human liver microsomes assessed as 1'-hydroxymidazolam metabolite formation using midazolam as substrate incubated for 10 mins by HPLC-MS method
[4] = Aqueous equilibrium solubility of compound in pH 1 solution at 20 degC; settings: aqueous pH 1 solution
[5] = Cytotoxicity against human HepG2 cells assessed as reduction in cell viability after 40 hrs by Celltiter-Glo assay; settings: HepG2 cells
[6] = Permeability in human Caco2 cells; settings: caco-2
[7] = Aqueous equilibrium solubility of compound in pH 7.4 solution at 20 degC; settings: aqueous pH 7.4 solution
[8] = system: Mycobacterium tuberculosis; assay: Antimycobacterial activity against Mycobacterium tuberculosis H37Rv incubated for 5 days in presence of 25% human serum by Bactiter-Glo assay; assay type: functional; settings: 120 h
[9] = system: Mycobacterium tuberculosis; assay: Antimycobacterial activity against Mycobacterium tuberculosis H37Rv incubated for 5 days by Bactiter-Glo assay; assay type: functional; settings: 120 h
[10] = Time at which lung concentration stays above invitro MIC80 in presence of mouse serum in Balb/c mouse infected with Mycobacterium tuberculosis H37Rv at 100 mg/kg, po administered through gavage as lipidic/water formulation; assay type: ADME, organism-based; settings: in vivo
[11] = AUC in Balb/c mouse plasma infected with Mycobacterium tuberculosis H37Rv at 10 to 100 mg/kg, po administered through gavage as lipidic/water formulation; assay type: ADME, organism-based
[12] = system: Mycobacterium tuberculosis; assay: (§1) Antimycobacterial activity against Mycobacterium tuberculosis H37Rv infected in Balb/c mouse assessed as bacterial burden in lungs at 600 mg/kg, po administered daily through gavage starting on day 2 post infection for 4 days per week for 2 weeks as lipidic/water formulation measured on day 12 post infection (reference value: 7.2 log10CFU); assay type: functional, Lung
[13] = Protein binding in Swiss mouse plasma at 1 to 10 uM after 4 hrs by LC-MS/MS analysis; assay type: ADME, cell-free; settings: read-out: PPB (converted)
[14] = system: Mycobacterium tuberculosis; assay: as §1, with “30” for “600”, “vitamin E/water” for “lipidic/water”, “7.6” for “7.2”; assay type: functional, Lung
[15] = Lipophilicity, log P of compound; settings: octanol/water
[16] = Time at which plasma concentration stays above invitro MIC80 in presence of mouse serum in Balb/c mouse infected with Mycobacterium tuberculosis H37Rv at 100 mg/kg, po administered through gavage as lipidic/water formulation; assay type: ADME, organism-based; settings: in vivo
[17] = Bioavailability in Swiss mouse at 3 mg/kg, iv administered as single bolus dose in NMP/Solutol HS15/PBS solution after 24 hrs; assay type: ADME, organism-based; settings: in vivo
[18] = system: Mycobacterium tuberculosis; assay: as §1, with “300” for “600”, “vitamin E/water” for “lipidic/water”, “7.6” for “7.2”; assay type: functional, Lung
[19] = system: Mycobacterium tuberculosis; assay: as §1, with “100” for “600”, “vitamin E/water” for “lipidic/water”, “7.6” for “7.2”; assay type: functional, Lung
[20] = Protein binding in human plasma at 1 to 10 uM after 4 hrs by LC-MS/MS analysis; assay type: ADME, cell-free; settings: read-out: PPB (converted)
[21] = system: Mycobacterium tuberculosis; assay: Antimycobacterial activity against GFP-tagged Mycobacterium tuberculosis H37Rv infected in mouse RAW264.7 cells incubated for 4 days by Mask blue/Hoechst/FITC staining based fluorescence microscopic analysis; assay type: functional; settings: 96 h
[22] = system: Mycobacterium tuberculosis; assay: Antimycobacterial activity against Mycobacterium tuberculosis H37Rv incubated for 5 days in presence of 25% mouse serum by Bactiter-Glo assay; assay type: functional; settings: 120 h
[23] = system: Mycobacterium tuberculosis; assay: Antimycobacterial activity against Mycobacterium tuberculosis H37Rv infected in po dosed Balb/c mouse assessed as log10 reduction in CFU in lungs administered daily through gavage starting on day 2 post infection for 4 days per week for 2 weeks as lipidic/water formulation measured on day 12 post infection; assay type: functional; settings: read-out: MED
[24] = system: Mycobacterium tuberculosis; assay: as §1, with “10” for “600”, “gavage for 2 weeks” for “gavage”, “infection” for “infection for 4 days per week for 2 weeks”, “5% soluplus/acetate buffer” for “lipidic/water”, “6.4” for “7.2”; assay type: functional, Lung
[25] = system: Mycobacterium tuberculosis; assay: as §1, with “30” for “600”, “gavage for 2 weeks” for “gavage”, “infection” for “infection for 4 days per week for 2 weeks”, “5% soluplus/acetate buffer” for “lipidic/water”, “6.4” for “7.2”; assay type: functional, Lung
[26] = AUC in Balb/c mouse plasma infected with Mycobacterium tuberculosis H37Rv at 300 mg/kg, po administered through gavage as 5% soluplus/acetate buffer formulation; assay type: ADME, organism-based
[27] = system: Mycobacterium tuberculosis; assay: as §1, with “100” for “600”, “gavage for 2 weeks” for “gavage”, “infection” for “infection for 4 days per week for 2 weeks”, “5% soluplus/acetate buffer” for “lipidic/water”, “6.4” for “7.2”; assay type: functional, Lung
[28] = Time at which plasma concentration stays above invitro MIC80 in presence of mouse serum Balb/c mouse infected with Mycobacterium tuberculosis H37Rv at 300 mg/kg, po administered through gavage as 5% soluplus/acetate buffer formulation; assay type: ADME, organism-based; settings: in vivo
[29] = AUC in Balb/c mouse lungs infected with Mycobacterium tuberculosis H37Rv at 300 mg/kg, po administered through gavage as 5% soluplus/acetate buffer formulation; assay type: ADME, organism-based; settings: lung
[30] = system: Mycobacterium tuberculosis; assay: as §1, with “300” for “600”, “gavage for 2 weeks” for “gavage”, “infection” for “infection for 4 days per week for 2 weeks”, “5% soluplus/acetate buffer” for “lipidic/water”, “6.4” for “7.2”; assay type: functional, Lung
[31] = system: Mycobacterium tuberculosis; assay: Antimycobacterial activity against Mycobacterium tuberculosis H37Rv infected in po dosed Balb/c mouse assessed as bacterial burden in lungs administered daily through gavage starting on day 2 post infection for 4 days per week for 2 weeks each 4 days dosing followed by 2 days compound washout measured on day 12 post infection (reference value: 8 log10CFU); assay type: functional, Lung

| Structure (SMILES) | Ratio [1] | IC50 (Cytochrome P450 3A4 [2]) [µM] | IC50 (Cytochrome P450 3A4 [3]) [µM] | solubility thermodynamic [4] [µg/mL] | IC50 at 40 h [5] [µM] | permeability [6] | solubility thermodynamic [7] [µg/mL] | MIC80 [8] [µM] | MIC80 [9] [µM] | logP [15] | MIC80 [21] [µM] | also measured |
| --- | --- | --- | --- | --- | --- | --- | --- | --- | --- | --- | --- | --- |
| Cn1c(NCCc2ccc(N3CCOCC3)cc2)nc2cc(Cl)ccc2c1=O | 8 | 11 | 11 | 1090 (≈ 2740 µM) | > 30 | Permeable | 8 (≈ 20.1 µM) | > 10 | 0.33 (≈ 0.132 µg/mL) | – | – | – |
| Cn1c(NCCc2ccc(Oc3ccc(Cl)cc3)cc2)nc2cc(Cl)ccc2c1=O | 8 | 29 | 14 | < 1 | 10.9 | Permeable | < 1 | 1.9 | 0.036 (≈ 0.0159 µg/mL) | 5.66 | 0.133 (≈ 0.0586 µg/mL) | Time [10]: > 96 h; AUC [11]: 21 µg·h/mL; Activity [12]: 6.3 log10CFU; fraction unbound at 4 h [13]: 0.001; Activity [14]: 7.5 log10CFU; Time [16]: > 96 h; bioavailability [17]: 90%; Activity [18]: 7 log10CFU; Activity [19]: 7.1 log10CFU; fraction unbound at 4 h [20]: 0.001; MIC80 [22]: 0.42 µM; minimal effective dose [23]: 600 mg/kg |
| COc1ccc(CCNc2nc3cc(Cl)ccc3c(=O)n2C)nc1 | 8 | 7.4 | < 1 | 1140 (≈ 3300 µM) | 27 | Permeable | 9 (≈ 26.1 µM) | – | 0.53 (≈ 0.183 µg/mL) | 3.32 | – | – |
| COc1ccc(CCNc2nc3cc(C)ccc3c(=O)n2C)cc1 | >10 | 4.8 | < 1 | 221 (≈ 683 µM) | > 30 | Permeable | < 1 | – | 0.01 (≈ 0.00323 µg/mL) | – | – | – |
| COc1ccc(-c2ccc(CCNc3nc4cc(Cl)ccc4c(=O)n3C)cc2)cc1 | 200 | 7.9 | 8 | 26 (≈ 61.9 µM) | > 30 | Permeable | < 1 | 1.47 | 0.007 (≈ 0.00294 µg/mL) | 5.13 | – | – |
| Cn1c(NCCc2ccc(-c3ccc(Cl)cn3)cc2)nc2cc(Cl)ccc2c1=O | 30 | 8.4 | > 30 | 21 (≈ 49.4 µM) | > 30 | Permeable | < 1 | 0.25 | 0.002 (≈ 0.000851 µg/mL) | 5.04 | 0.063 (≈ 0.0268 µg/mL) | – |
| Cn1c(NCCc2ccc(OC(F)(F)F)cc2)nc2cc(Cl)ccc2c1=O | 8 | > 30 | 4 | 43 (≈ 108 µM) | 9.9 | Permeable | < 1 | 2.33 | 0.07 (≈ 0.0278 µg/mL) | 4.95 | – | – |
| Cn1c(NCCc2ccc(-c3ccc(F)cc3)cn2)nc2cc(Cl)ccc2c1=O | 8 | – | – | – | 0.057 | – | – | 4.02 | 0.06 (≈ 0.0245 µg/mL) | 4.23 | 0.201 (≈ 0.0822 µg/mL) | – |
| Cn1c(NCCc2ccc(-c3ccc(F)cc3)cc2)nc2cc(Cl)ccc2c1=O.O=S(=O)(O)O | – | – | – | – | – | – | – | – | – | – | – | Activity [24]: 6.6 log10CFU; Activity [25]: 5.8 log10CFU; AUC [26]: 140 µg·h/mL; Activity [27]: 5.5 log10CFU; Time [28]: > 24 h; AUC [29]: 980 µg·h/mL; Activity [30]: 4.9 log10CFU |
| CC[C@@H](CO)NCCN[C@@H](CC)CO [ETHAMBUTOL] | – | – | – | – | – | – | – | – | – | – | – | Activity [31]: 7 log10CFU |
